In ChEMBL document CHEMBL5365481, “Design, Synthesis, and Activity Evaluation of Novel Dual-Target Inhibitors with Antifungal and Immunoregulatory Properties” (J Med Chem, 2023):
In brackets after ≈: the same amount, converted by molar mass. Activity calls are given as the source filed them. No cut-off for these calls is given here.

How the values were obtained:
Candida albicans [1] = test: Induction of mitochondrial membrane depolarization in Candida albicans ATCC SC5314 assessed as depolarized cells at 1 microM/ml incubated for 24 hrs by JC-1 staining based flow cytometry assay (reference value: 0.3 to 5.1%); type: functional
Candida albicans [2] = test: Induction of ROS generation in Candida albicans ATCC SC5314 assessed as increase in fluorescence intensity at 1 microM/ml incubated for 48 hrs by fluorescent microscopy; type: functional, organism-based
Aspergillus fumigatus = test: Antifungal activity against Aspergillus fumigatus KM8001 assessed as inhibition of fungal growth incubated for 72 hrs by CLSI based liquid medium microdilution method; type: functional
Candida albicans [3] = test: In vivo antifungal activity against Candida albicans ATCC SC5314 infected in BALB/c mouse assessed as shrinkage in infected region at 10 ug, ip for 14 days; type: functional, organism-based; details: dose 10.0 µg, time 14.0 day
Pichia kudriavzevii = test: Antifungal activity against Candida krusei ATCC 6258 assessed as inhibition of fungal growth incubated for 72 hrs by CLSI based liquid medium microdilution method; type: functional
[4] = molecular target: T1, Lanosterol 14-alpha demethylase (Candida albicans (strain SC5314 / ATCC MYA-2876) (Yeast), UniProt P10613); test: Inhibition of Candida albicans ATCC SC5314 CYP51 assessed as lanosterol content at 4 ug/ml measured after 16 hrs by GC-MS analysis relative to control; set-up: scale not given: the % may be the effect or the level left; details: at 4 µg/mL
Candida albicans [5] = test: Antifungal activity against Candida albicans ATCC SC5314 assessed as inhibition of fungal growth incubated for 72 hrs by CLSI based liquid medium microdilution method; type: functional
Cryptococcus neoformans = test: Antifungal activity against Cryptococcus neoformans ZKCC 2209 assessed as inhibition of fungal growth incubated for 72 hrs by CLSI based liquid medium microdilution method; type: functional
[6] = molecular target: T1, Lanosterol 14-alpha demethylase; test: Inhibition of Candida albicans ATCC SC5314 CYP51 assessed as other unknown sterol content at 4 ug/ml measured after 16 hrs by GC-MS analysis (Rvb= 3.82%); set-up: scale not given: the % may be the effect or the level left; details: at 4 µg/mL
[7] = Toxicity in BALB/c mouse infected with Candida albicans ATCC SC5314 assessed as morphological changes in lung at 10 ug, ip for 14 days by H and E staining based microscopy; type: organism-based; details: in vivo, 336 h, dose 10 µg, time 14 day
Candida albicans [8] = test: Antifungal activity against Candida albicans ATCC SC5314 assessed as change in osmotic pressure at 1 microM/ml incubated for 48 hrs by absorbance based assay; type: functional, organism-based
[9] = Toxicity in BALB/c mouse infected with Candida albicans ATCC SC5314 assessed as morphological changes in liver at 10 ug, ip for 14 days by H and E staining based microscopy; type: organism-based; details: in vivo, 336 h, dose 10 µg, time 14 day
Candida albicans [10] = test: In vivo antifungal activity against Candida albicans ATCC SC5314 infected in BALB/c mouse assessed as disappearance of nuclei aggregation at 10 ug, ip for 14 days by GMS staining based microscopy; type: functional, organism-based; details: dose 10.0 µg, time 14.0 day
Candida albicans [11] = test: Antifungal activity against fluconazole-resistant Candida albicans 632 assessed as inhibition of fungal growth incubated for 72 hrs by CLSI based liquid medium microdilution method; type: functional
Candida albicans [12] = test: Antifungal activity against fluconazole-resistant Candida albicans 904 assessed as inhibition of fungal growth incubated for 72 hrs by CLSI based liquid medium microdilution method; type: functional
Candida albicans [13] = test: In vivo antifungal activity against Candida albicans ATCC SC5314 infected in BALB/c mouse assessed as decrease in IFN-gamma expression level at 10 ug, ip for 14 days by immunohistochemical analysis; type: functional, organism-based; details: dose 10.0 µg, time 14.0 day
Candida albicans [14] = test: Antifungal activity against Candida albicans ATCC SC5314 assessed as change in structural stability at 1 microM/ml incubated for 48 hrs by absorbance based assay; type: functional, organism-based
[15] = Toxicity in BALB/c mouse infected with Candida albicans ATCC SC5314 assessed as morphological changes in spleen at 10 ug, ip for 14 days by H and E staining based microscopy; type: organism-based; details: in vivo, 336 h, dose 10 µg, time 14 day
Candida albicans [16] = test: Antifungal activity against Candida albicans ATCC SC5314 assessed as decrease in fungal cell density at 1 microM/ml incubated for 48 hrs by absorbance based assay; type: functional, organism-based
[17] = Toxicity in BALB/c mouse infected with Candida albicans ATCC SC5314 assessed as plasma BUN level at 10 ug, ip for 14 days; type: organism-based; details: in vivo, 336 h, dose 10 µg, time 14 day
Candida albicans [18] = test: Antifungal activity against fluconazole-resistant Candida albicans CaR assessed as inhibition of fungal growth incubated for 72 hrs by CLSI based liquid medium microdilution method; type: functional
Candida albicans [19] = test: Antifungal activity against fluconazole-resistant Candida albicans 17# assessed as inhibition of fungal growth incubated for 72 hrs by CLSI based liquid medium microdilution method; type: functional
Candida albicans [20] = test: In vivo antifungal activity against Candida albicans ATCC SC5314 infected in BALB/c mouse assessed as reversal of cell morphology to normal state at 10 ug, ip for 14 days by GMS staining based microscopy; type: functional, organism-based; details: dose 10.0 µg, time 14.0 day
Candida albicans [21] = test: Induction of mitochondrial membrane depolarization in Candida albicans ATCC SC5314 assessed as polarized cells at 1 microM/ml incubated for 24 hrs by JC-1 staining based flow cytometry assay (reference value: 0.28 +/- 0.02%); type: functional
[22] = molecular target: T1, Lanosterol 14-alpha demethylase; test: Inhibition of Candida albicans ATCC SC5314 CYP51 using lanosterol as substrate incubated for 30 mins by HPLC assay
[23] = Toxicity in BALB/c mouse infected with Candida albicans ATCC SC5314 assessed as plasma AST level at 10 ug, ip for 14 days; type: organism-based; details: in vivo, 336 h, dose 10 µg, time 14 day
Candida albicans [24] = test: Induction of apoptosis in Candida albicans ATCC SC5314 assessed as late apoptotic cells at 1 microM/ml incubated for 48 hrs by Hoechst 33258/PI staining based flow cytometry (Rvb= 0.05 +/- 0.01%); type: functional
Candida tropicalis = test: Antifungal activity against Candida tropicalis ATCC 1369 assessed as inhibition of fungal growth incubated for 72 hrs by CLSI based liquid medium microdilution method; type: functional
[25] = molecular target: T1, Lanosterol 14-alpha demethylase; test: Inhibition of Candida albicans ATCC SC5314 CYP51 assessed as ergosterol content at 4 ug/ml measured after 16 hrs by GC-MS analysis (reference value: 92.71%); set-up: scale not given: the % may be the effect or the level left; details: at 4 µg/mL
Candida albicans [26] = test: In vivo antifungal activity against Candida albicans ATCC SC5314 infected in BALB/c mouse assessed as increase in body weight at 10 ug, ip for 14 days; type: functional, organism-based; details: dose 10.0 µg, time 14.0 day
[27] = Toxicity in BALB/c mouse infected with Candida albicans ATCC SC5314 assessed as plasma ALT level at 10 ug, ip for 14 days; type: organism-based; details: in vivo, 336 h, dose 10 µg, time 14 day
Candida albicans [28] = test: In vivo antifungal activity against Candida albicans ATCC SC5314 infected in BALB/c mouse assessed as decrease in IL-2 expression level at 10 ug, ip for 14 days by immunohistochemical analysis; type: functional, organism-based; details: dose 10.0 µg, time 14.0 day
Candida albicans [29] = test: In vivo antifungal activity against Candida albicans ATCC SC5314 infected in BALB/c mouse assessed as decrease in number of exogenous fungal cells at 10 ug, ip for 14 days by H and E staining based microscopy; type: functional, organism-based; details: dose 10.0 µg, time 14.0 day
Candida albicans [30] = test: In vivo antifungal activity against Candida albicans ATCC SC5314 infected in BALB/c mouse assessed as decrease in necrotic cell debris in tissue gap at 10 ug, ip for 14 days by GMS staining based microscopy; type: functional, organism-based; details: dose 10.0 µg, time 14.0 day

T1 sequence (P10613 whole entry): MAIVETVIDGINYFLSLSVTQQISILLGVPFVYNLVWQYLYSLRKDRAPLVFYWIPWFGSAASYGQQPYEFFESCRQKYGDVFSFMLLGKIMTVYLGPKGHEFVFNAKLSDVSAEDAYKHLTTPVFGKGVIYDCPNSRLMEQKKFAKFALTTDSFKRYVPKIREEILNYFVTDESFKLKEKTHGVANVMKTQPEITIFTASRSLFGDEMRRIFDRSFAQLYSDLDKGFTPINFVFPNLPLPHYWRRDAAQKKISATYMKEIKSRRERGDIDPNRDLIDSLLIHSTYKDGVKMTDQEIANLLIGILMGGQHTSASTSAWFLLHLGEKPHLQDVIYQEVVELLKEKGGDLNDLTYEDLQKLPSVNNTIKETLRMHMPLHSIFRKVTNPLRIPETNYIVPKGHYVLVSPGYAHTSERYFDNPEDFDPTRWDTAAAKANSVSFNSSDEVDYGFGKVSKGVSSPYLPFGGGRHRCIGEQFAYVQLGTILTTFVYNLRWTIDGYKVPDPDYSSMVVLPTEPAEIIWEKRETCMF

| SMILES | Activity (Candida albicans [1]) | Activity (Candida albicans [2]) | MIC50 (Aspergillus fumigatus) | Activity (Candida albicans [3]) | MIC50 (Pichia kudriavzevii) | Activity [4] | MIC50 (Candida albicans [5]) | MIC50 (Cryptococcus neoformans) | Activity [6] | Activity [7] | Activity (Candida albicans [8]) | Activity [9] | Activity (Candida albicans [10]) | MIC50 (Candida albicans [11]) | MIC50 (Candida albicans [12]) | Activity (Candida albicans [13]) | Activity (Candida albicans [14]) | Activity [15] | Activity (Candida albicans [16]) | Activity [17] | also measured |
| --- | --- | --- | --- | --- | --- | --- | --- | --- | --- | --- | --- | --- | --- | --- | --- | --- | --- | --- | --- | --- | --- |
| CC(=O)c1ccc(C(=O)N2CCC(NC(=O)c3nc(-n4cncn4)c4ccccc4n3)CC2)cc1 | 1.27% | Active | 1 µg/mL (≈ 2.13 µM) | Active | 0.25 µg/mL (≈ 0.532 µM) | 32.47% | 0.25 µg/mL (≈ 0.532 µM) | 0.5 µg/mL (≈ 1.06 µM) | 5.74% | Non-Toxic | Active | Non-Toxic | Active | 1 µg/mL (≈ 2.13 µM) | 2 µg/mL (≈ 4.26 µM) | Active | Active | Non-Toxic | Active | 17.9 mM | MIC50 (Candida albicans [18]): 2 µg/mL (≈ 4.26 µM); MIC50 (Candida albicans [19]): 1 µg/mL (≈ 2.13 µM); Activity (Candida albicans [20]): Active; Activity (Candida albicans [21]): 0.62%; IC50 [22]: 0.263 µM; Activity [23]: 54.9 IU/L; Activity (Candida albicans [24]): 0.07%; MIC50 (Candida tropicalis): 0.25 µg/mL (≈ 0.532 µM); Activity [25]: 18.64%; Activity (Candida albicans [26]): Active; Activity [27]: 32.3 IU/L; Activity (Candida albicans [28]): Active; Activity (Candida albicans [29]): Active; Activity (Candida albicans [30]): Active |
| CC(C)c1ccc(C(=O)N2CCC(NC(=O)c3nc(-n4ccnc4)c4ccccc4n3)CC2)cc1 | 0.1% | Active | 2 µg/mL (≈ 4.27 µM) | Active | 0.5 µg/mL (≈ 1.07 µM) | 29.53% | 0.25 µg/mL (≈ 0.534 µM) | 0.5 µg/mL (≈ 1.07 µM) | 5.58% | Non-Toxic | Active | Non-Toxic | Active | 1 µg/mL (≈ 2.13 µM) | > 8 µg/mL | Active | Active | Non-Toxic | Active | 20.2 mM | MIC50 (Candida albicans [18]): 4 µg/mL (≈ 8.54 µM); MIC50 (Candida albicans [19]): 2 µg/mL (≈ 4.27 µM); Activity (Candida albicans [20]): Active; Activity (Candida albicans [21]): 0.1%; IC50 [22]: 0.205 µM; Activity [23]: 66.8 IU/L; Activity (Candida albicans [24]): 0.19%; MIC50 (Candida tropicalis): 0.25 µg/mL (≈ 0.534 µM); Activity [25]: 20.92%; Activity (Candida albicans [26]): Active; Activity [27]: 30.5 IU/L; Activity (Candida albicans [28]): Active; Activity (Candida albicans [29]): Active; Activity (Candida albicans [30]): Active |
| OC(Cn1cncn1)(Cn1cncn1)c1ccc(F)cc1F [FLUCONAZOLE] | 0.28% | Active | > 8 µg/mL | Active | 1 µg/mL (≈ 3.27 µM) | 30.06% | 0.5 µg/mL (≈ 1.63 µM) | 1 µg/mL (≈ 3.27 µM) | 5.58% | Non-Toxic | Active | Non-Toxic | Active | > 8 µg/mL | > 8 µg/mL | Active | Active | Non-Toxic | Active | 24.2 mM | MIC50 (Candida albicans [18]): > 8 µg/mL; MIC50 (Candida albicans [19]): > 8 µg/mL; Activity (Candida albicans [20]): Active; Activity (Candida albicans [21]): 0.39%; IC50 [22]: 0.159 µM; Activity [23]: 79.7 IU/L; Activity (Candida albicans [24]): 0.07%; MIC50 (Candida tropicalis): 0.5 µg/mL (≈ 1.63 µM); Activity [25]: 17.84%; Activity (Candida albicans [26]): Active; Activity [27]: 41.9 IU/L; Activity (Candida albicans [28]): Active; Activity (Candida albicans [29]): Active; Activity (Candida albicans [30]): Active |
